Legend:
[1] = Parent ionizable lipid remaining in liver at 6 h after luciferase mRNA LNP (LC-MS); type: in vivo; settings: 6 h after IV 0.5 mg/kg Luciferase mRNA LNP
Procedure: (§1) Liver tissues were treated with PBS and homogenized with a FastPrep machine, 3 cycles of 5 m/s×15 s. Homogenates from the PBS-treated control animals was pooled and used for standard curve preparation. Samples were extracted into a deep well plate with 250 μL of an internal suitability standard. Plates were centrifuged for 15 min at 4° C. and 2000 rpm. Analysis was performed using an Agilent 6520 QTOF coupled to an Agilent 1290 UHPLC, using reverse-phase LC separation. Quantitation of the ionizable lipid was by MS/MS against a calibration curve spiked into appropriately matched blank matrix. Calibration used a similar class of synthetic lipid as internal standard.
At 6 h post-dose, some treatment groups reported lower levels of novel ionizable lipid in mouse liver compared to the benchmark (Tables 16-18).

[2] = Particle characteristics of LNPs containing luciferase mRNA and novel ionizable lipids; type: physicochemical; settings: luciferase mRNA LNP 1.6:54.6:32.8:10.9
Outline: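 LNPs made from PEG-lipid, ionizable lipid, cholesterol and phospholipid in ethanol, T-mixed with luciferase mRNA in 100 mM acetate pH 5. Products were dialysed, concentrated, and dialysed into 5 mM Tris, 10% sucrose, pH 8, then 0.2 μm filtered. mRNA was measured by RiboGreen, and size and polydispersity by dynamic light scattering on a Zetasizer.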

[3] = test system: luciferase activity in the liver; assay: Luciferase activity in liver after intravenous luciferase mRNA LNP; type: in vivo; settings: 0.5 mg/kg IV, 6 h post-IV administration, BALB/c mice (n = 4)
[4] = Particle characteristics of LNPs containing EGFP mRNA and novel ionizable lipids; type: physicochemical; settings: EGFP mRNA LNP 1.6:54.6:32.8:10.9
Procedure: The lipid solution contains 4 components: a PEG-conjugated lipid, an ionizable lipid, cholesterol, and a phospholipid (e.g., DSPC). Lipid stocks were prepared using the lipid identities and molar ratios as described, to achieve a total concentration of ˜7 mg/mL in 100% ethanol. […] Equal volumes of the lipid and nucleic acid solutions were blended at a flow rate of 400 mL/min through a T-connector, and diluted with ˜4 volumes of PBS, pH 7.4. Formulations were placed in Slide-A-Lyzer dialysis units (MWCO 10,000) and dialyzed overnight against 10 mM Tris, 500 mM NaCl, pH 8 buffer. Following dialysis, the formulations were concentrated to ˜0.6 mg/mL using VivaSpin concentrator units (MWCO 100,000) and dialyzed overnight against 5 mM Tris, 10% sucrose, pH 8 buffer. Formulations were filtered through a 0.2 μm syringe filter (PES membrane). Nucleic acid concentration was determined by the RiboGreen assay. Particle size and polydispersity were determined using a Malvern Nano Series Zetasizer.
LNP formulations containing novel ionizable lipids all produced stable particles with high encapsulation efficiency (Tables 20-23).

[5] = Parent ionizable lipid remaining in liver at 24 h after EGFP mRNA LNP (LC-MS); type: in vivo; settings: 24 h after IV 0.5 mg/kg EGFP mRNA LNP, female BALB/c mice (n = 4)
Procedure: as §1
At 24 h post-dose, some treatment groups reported lower levels of novel ionizable lipid in mouse liver compared to the benchmark (Tables 28-31).

[6] = test system: EGFP expression in the liver; assay: EGFP expression in liver after intravenous EGFP mRNA LNP (ELISA); settings: 0.5 mg/kg IV, 24 h post-IV administration, BALB/c mice (n = 4)
[7] = Table 18, female BALB/c mice (n = 4)

Compound | Parent ionizable lipid remaining in liver, Average [1, 7] [nmol/g liver] | Final Product % EE ([2]; Table 7) [%] | Final Product PDI ([2]; Table 7) | Final Product Z-avg ([2]; Table 7) [nm] | Luc Activity ([3]; Table 14) [pg/g liver] | Final Product % EE ([4]; Table 21) [%] | Final Product PDI ([4]; Table 21) | Final Product Z-avg ([4]; Table 21) [nm] | Parent ionizable lipid remaining in liver, Average ([5]; Table 29) [nmol/g liver] | EGFP ([6]; Table 25) [pg/g liver] | further results
CCCCCCCCCCC(CCCCCCCC(=O)OCCC(CCCCC)CCCCC)N(CCCCCCCCC(=O)OCCC(CCCCC)CCCCC)C(=O)CCCCN(C)C (centres unmarked) [Compound 65, 3-Pentyloctyl 9-(5-(dimethylamino)-N-(9-oxo-9-((3-pentyloctyl)oxy)nonyl)-pentanamido)-nonadecanoate] |  |  |  |  |  |  |  |  |  |  | Parent ionizable lipid remaining in liver, Average ([1]; Table 17, female mice (n = 4)): 27.84 nmol/g liver; Final Product % EE ([2]; Table 6): 98%; Final Product PDI ([2]; Table 6): 0.01; Final Product Z-avg ([2]; Table 6): 83 nm; Luc Activity ([3]; Table 13): 3.88E+07 pg/g liver
CCCCCCCCCCC(CCCCCCCC(=O)OCC(CCCCCC)CCCCCCCC)N(CCCCCCCCC(=O)OCC(CCCCCC)CCCCCCCC)C(=O)CCCCN(C)C (centres unmarked) [Compound 72, 2-Hexyldecyl 9-(5-(dimethylamino)-N-(9-((2-hexyldecyl)oxy)-9-oxononyl)pentanamido)-nonadecanoate] |  |  |  |  |  |  |  |  |  |  | Parent ionizable lipid remaining in liver, Average ([1]; Table 17, female mice (n = 4)): 47.56 nmol/g liver; Final Product % EE ([2]; Table 6): 99%; Final Product PDI ([2]; Table 6): 0.00; Final Product Z-avg ([2]; Table 6): 79 nm; Luc Activity ([3]; Table 13): 2.26E+07 pg/g liver
CCCCCCCCCCC(CCCCCCCC(=O)OCCC(CCCCC)CCCCC)N(CCCCCCCC(=O)OCCC(CCCCC)CCCCC)C(=O)CCCCN(C)C (centres unmarked) [Compound 73, 3-Pentyloctyl 9-(5-(dimethylamino)-N-(8-oxo-8-((3-pentyloctyl)oxy)octyl)-pentanamido)-nonadecanoate] | 31.41 | 99 | 0.00 | 82 | 3.64E+07 |  |  |  |  |  | 
CCCCCCCCCCC(CCCCCCCC(=O)OCC(CCCCCC)CCCCCCCC)N(CCCCCCCC(=O)OCC(CCCCCC)CCCCCCCC)C(=O)CCCCN(C)C (centres unmarked) [Compound 74, 2-Hexyldecyl 9-(5-(dimethylamino)-N-(8-((2-hexyldecyl)oxy)-8-oxooctyl)-pentanamido)-nonadecanoate] | 17.92 | 99 | 0.05 | 89 | 6.77E+07 |  |  |  |  |  | 
CCCCCCCCCCN(C(=O)CCCN(C)C)C(CCCCCCCCC)CCCCCCC(F)C(=O)OCCC(CCCCCC)CCCCCC (centres unmarked) [Compound 76, 3-Hexylnonyl 9-[N-decyl-4-(dimethylamino)butanamido]-2-fluorooctadecanoate] | 17.86 | 98 | 0.07 | 69 | 2.09E+07 |  |  |  |  |  | 
CCCCCCCCCCN(C(=O)CCCN(C)C)C(CCCCCCCCC)CCCCCCC(F)C(=O)OCC(CCCCCC)CCCCCCCC (centres unmarked) [Compound 77, 2-Hexyldecyl 9-(N-decyl-4-(dimethylamino)butanamido)-2-fluorooctadecanoate] | 30.63 | 99 | 0.09 | 63 | 3.26E+07 |  |  |  |  |  | 
CCCCCCCCCCC(CCCCCCC(F)(F)C(=O)OCCC(CCCCC)CCCCC)N(CCCCCCCC(=O)OCCC(CCCCC)CCCCC)C(=O)CCCN(C)C (centres unmarked) [Compound 87, 3-pentyloctyl 9-[4-(dimethylamino)-N-{8-oxo-8-[(3-pentyloctyl)oxy]octyl}butanamido]-2,2-difluorononadecanoate] | 3.23 | 98 | 0.05 | 78 | 1.18E+06 |  |  |  |  |  | 
CCCCCCCCCC(CCCCCCC(F)C(=O)OCCC(CCCCC)CCCCC)N(CCCCCCCC(=O)OCCC(CCCCC)CCCCC)C(=O)CCCN(C)C (centres unmarked) [Compound 88, 3-pentyloctyl 9-[4-(dimethylamino)-N-{8-oxo-8-[(3-pentyloctyl)oxy]octyl}butanamido]-2-fluorooctadecanoate] | 7.88 | 99 | 0.04 | 72 | 1.64E+07 |  |  |  |  |  | 
CCCCCCCCCCC(CCCCCCC(=O)OCCC(CCCCC)CCCCC)N(CCCCCCCCCC)C(=O)CCCCN1CCCC1 (centres unmarked) [Compound 89, 3-Pentyloctyl 8-(N-decyl-5-(pyrrolidin-1-yl)pentanamido)octadecanoate] |  |  |  |  |  |  |  |  |  |  | Final Product % EE ([4]; Table 20): 99%; Final Product PDI ([4]; Table 20): 0.03; Final Product Z-avg ([4]; Table 20): 83 nm; Parent ionizable lipid remaining in liver, Average ([5]; Table 28): 4.32 nmol/g liver; EGFP ([6]; Table 24): 2.01E+07 pg/g liver
CCCCCCCCCCC(CCCCCCC(=O)OCCC(CCCCCC)CCCCCC)N(CCCCCCCCCC)C(=O)CCCCN1CCCC1 (centres unmarked) [Compound 90, 3-Hexylnonyl 8-(N-decyl-5-(pyrrolidin-1-yl)pentanamido)octadecanoate] |  |  |  |  |  |  |  |  |  |  | Final Product % EE ([4]; Table 20): 99%; Final Product PDI ([4]; Table 20): 0.07; Final Product Z-avg ([4]; Table 20): 79 nm; Parent ionizable lipid remaining in liver, Average ([5]; Table 28): 13.37 nmol/g liver; EGFP ([6]; Table 24): 2.12E+07 pg/g liver
CCCCCCCCCCC(CCCCCCC(=O)OCCC(CCCCCCC)CCCCCCC)N(CCCCCCCCCC)C(=O)CCCCN1CCCC1 (centres unmarked) [Compound 91, 3-Heptyldecyl 8-(N-decyl-5-(pyrrolidin-1-yl)pentanamido)octadecanoate] |  |  |  |  |  |  |  |  |  |  | Final Product % EE ([4]; Table 20): 99%; Final Product PDI ([4]; Table 20): 0.03; Final Product Z-avg ([4]; Table 20): 85 nm; Parent ionizable lipid remaining in liver, Average ([5]; Table 28): 18.58 nmol/g liver; EGFP ([6]; Table 24): 3.15E+07 pg/g liver
CCCCCCCCCCN(C(=O)CCCN(C)C)C(CCCCCCCCC)CCCCCCC(F)(F)C(=O)OC(CCCCCC)CCCCCC (centres unmarked) [Compound 92, Tridecan-7-yl 9-(N-decyl-4-(dimethylamino)butanamido)-2,2-difluorooctadecanoate] |  |  |  |  |  | 99 | 0.09 | 71 | 8.83 | 6.34E+05 | 
CCCCCCCCCCN(C(=O)CCCN(C)C)C(CCCCCCCCC)CCCCCCC(F)(F)C(=O)OC(CCCCCCC)CCCCCCC (centres unmarked) [Compound 93, Pentadecan-8-yl 9-(N-decyl-4-(dimethylamino)butanamido)-2,2-difluorooctadecanoate] |  |  |  |  |  | 98 | 0.02 | 69 | 24.61 | 1.77E+05 | 
CCCCCC/C=C\CCON(C(=O)CCCCN(C)C)C(CCCCCCCCCC)CCCCCCC(=O)OCCC(CCCCC)CCCCC (centres unmarked) [Compound 94, 3-Pentyloctyl (Z)-8-(N-(dec-3-en-1-yloxy)-5-(dimethylamino)pentanamido)octadecanoate] |  |  |  |  |  | 98 | 0.06 | 83 | 6.57 | 1.20E+06 | 
CCCCCCCCCCON(C(=O)CCCCN(C)C)C(CCCCCCCCCC)CCCCCCC(=O)OCCC(CCCCC)CCCCC (centres unmarked) [Compound 95, 3-Pentyloctyl 8-(N-(decyloxy)-5-(dimethylamino)pentanamido)octadecanoate] |  |  |  |  |  | 96 | 0.08 | 80 | 9.44 | 8.76E+05 | 
CCCCCCCCCCON(C(=O)CCCCN(C)C)C(CCCCCCCCCC)CCCCCCC(=O)OCCC(CCCCCC)CCCCCC (centres unmarked) [Compound 97, 3-Hexylnonyl 8-(N-(decyloxy)-5-(dimethylamino)pentanamido)octadecanoate] |  |  |  |  |  | 99 | 0.07 | 85 | 19.31 | 1.48E+06 | 

Reference: patent US20250332112A1, “IONIZABLE CATIONIC LIPIDS FOR LIPID NANOPARTICLES” (GENEVANT SCIENCES GMBH, priority 2022, published 2025)
